Test results published in paper PMC9100673, “Acridine Based N-Acylhydrazone Derivatives as Potential Anticancer Agents: Synthesis, Characterization and ctDNA/HSA Spectroscopic Binding Properties” (Molecules, 2022).

How the values were obtained:
A549 cells = assay: MTT assay, metabolic activity of A549 cells; type: cell-based, human; settings: for IC50: Homo sapiens
Protocol: (§1) The effect of acridine-benzohydrazides (3a–3d) on the metabolic activity of the lung adenocarcinoma cell line (A549) and the normal colon fibroblast cell line (CCD-18Co) was evaluated using a 3-(4,5-dimethylthiazol-2-yl)-2,5-diphenyltertrazolium bromide (MTT) cell assay. This assay is based on the metabolization of yellow MTT to purple formazan crystal by mitochondrial dehydrogenases, and therefore only metabolic active cells are capable of that reaction. The CCD-18Co cell line was used as a control to check for derivatives selectivity. The doxorubicin belongs to a group of anthracyclines, which represent the chemotherapeutic regiments for the treatment of NSCLC (non-small cell lung carcinoma) even today, and acts as antineoplastic mainly by interaction with the DNA topoisomerase II and by creating DNA single- and double-strand breaks. Previous studies described detailed cytotoxic effects of doxorubicin in the human lung adenocarcinoma A549 cell line. Doxorubicin resembles our compounds in its biological action; therefore, it was employed as a positive control.
(§2) Human lung carcinoma cell line A549 and CCD-18Co colon fibroblasts were purchased from the American Type Culture Collection (ATCC, Rockville, MD, USA). The A549 cells were cultured in a complete RPMI-1640 medium (Sigma-Aldrich, St. Louis, MO, USA) and CCD-18Co cells were cultured in a minimum essential medium (MEM) (PAN-Biotech GmbH, Aidenbach, Germany) at 37 °C, 95% humidity and 5% CO2. The media were supplemented with 10% fetal bovine serum (FBS, Biosera, Nuaille, France) and antibiotics (1% Antibiotic-Antimycotic 100 × and 50 × 10^−3 g L^−1 gentamicin, Biosera). Prior to the selected treatments, cells were seeded on 6- and/or 96-well plates (TPP, Trasadingen, Switzerland) and left to settle for 24 h. The acridine compounds solutions (at concentrations ranging from 5–75 µM) were then added to cells for 24 or 48 h, and analysis was subsequently performed.
(§3) MTT assays were performed in order to evaluate changes in the metabolic activity of cells that had occurred as a consequence of treatment with the acridine compounds. A549 cells (15 × 10^3 cells/cm^2) and CCD-18Co (15.625 × 10^3 cells/cm^2) were seeded in 96-well microplates. The A549 cells were treated for 24 and 48 h, and the CCD-18Co cells were treated for 48 h with different concentrations (5, 25, 50 and 75 µM) of the derivatives. After the treatment, the MTT (3-(4,5-dimethylthiazol-2-yl)-2,5-diphenyltertrazolium bromide) solution in PBS (5 mg mL^−1) was added to each well. The reaction was stopped after 4 h incubation, and the formazan was dissolved by the addition of SDS at a final concentration of 3.3%. The absorbance of formazan (λ = 584 nm) was measured using a BMG FLUOstar Optima spectrometer (BMG Labtech GmbH, Offenburg, Germany). The results were evaluated as percentages of the absorbance of the untreated control. Results are presented as the average percentage of cells from three independent experiments. IC50 values for the derivatives were extrapolated from a sigmoidal fit (dose-response curve) to the metabolic activity data using OriginPro 8.5.0 SR1 (OriginLab Corp., Northampton, MA, USA).

CCD-18Co cells = assay: MTT assay, metabolic activity of CCD-18Co fibroblasts; type: cell-based, human; settings: 48 h
Protocol: as §1, §2, §3

## O=C(N/N=C/c1ccc(F)cc1)c1cccc2cc3ccccc3nc12 [7b, N′-[(E)-4-Fluorophenylmethylidene]acridine-4-carbohydrazide]
other
  melting point: 255 to 256 °C

## O=C(N/N=C/c1ccc(Cl)cc1)c1cccc2cc3ccccc3nc12 [7c, N′-[(E)-4-Chlorophenylmethylidene]acridine-4-carbohydrazide]
other
  melting point: 243 to 244 °C

## O=C(N/N=C/c1ccc(Br)cc1)c1cccc2cc3ccccc3nc12 [7d, N′-[(E)-4-Bromophenylmethylidene]acridine-4-carbohydrazide]
other
  melting point: 240 to 241 °C

## COc1cccc2c1C(=O)c1c(O)c3c(c(O)c1C2=O)C[C@@](O)(C(=O)CO)C[C@@H]3O[C@H]1C[C@H](N)[C@H](O)[C@H](C)O1 [DOXO, doxorubicin, reference compound]
A549 cells; 24 h and 48 h, 5–75 μM tested
  effect on metabolic activity of A549 cells: significantly decreased
A549 cells; A549, 24 h
  IC50: 56 µM
A549 cells; A549, 48 h
  IC50: 5 µM
CCD-18Co cells; 5–75 μM tested
  effect on metabolic activity of CCD-18Co cells: significantly decreased
CCD-18Co cells; Homo sapiens, CCD-18Co
  IC50: 5 µM
